Test results taken from the NIST ThermoML archive (doi:10.1016/j.jct.2013.10.016).
± gives the expanded uncertainty stated by the source.

Assay: wn = mass fraction of the nth substance listed
Conditions: Wilhelmy plate method

Row | surface tension liquid-gas (293.2 K, w1 = 0.2) | surface tension liquid-gas (293.2 K, w1 = 0.25) | surface tension liquid-gas (293.2 K, w1 = 0.3) | surface tension liquid-gas (303.2 K, w1 = 0.2) | surface tension liquid-gas (303.2 K, w1 = 0.25) | surface tension liquid-gas (303.2 K, w1 = 0.3) | surface tension liquid-gas (313.2 K, w1 = 0.2) | surface tension liquid-gas (313.2 K, w1 = 0.25) | surface tension liquid-gas (313.2 K, w1 = 0.3) | surface tension liquid-gas (323.2 K, w1 = 0.2) | surface tension liquid-gas (323.2 K, w1 = 0.25) | surface tension liquid-gas (323.2 K, w1 = 0.3) | SMILES
1 | 65.1 ± 2 mN/m | 64.6 ± 2 mN/m | 62.8 ± 2 mN/m | 64.4 ± 2 mN/m | 62.7 ± 2 mN/m | 61.3 ± 2 mN/m | 63.9 ± 2 mN/m | 61.8 ± 2 mN/m | 60.4 ± 2 mN/m | 61.8 ± 2 mN/m | 59.6 ± 2 mN/m | 58.2 ± 2 mN/m | OCCNCCO [diethanolamine] + O
2 | 62.6 ± 2 mN/m | 61.2 ± 2 mN/m | 60.3 ± 2 mN/m | 61.8 ± 2 mN/m | 60.6 ± 2 mN/m | 59.5 ± 2 mN/m | 60.2 ± 2 mN/m | 59.2 ± 2 mN/m | 58 ± 2 mN/m | 58.7 ± 2 mN/m | 57.7 ± 2 mN/m | 56.5 ± 2 mN/m | NCCO [2-aminoethan-1-ol] + O
